# Test results taken from patent US7402388B2, “Expression analysis of FKBP54 in assessing prostate cancer therapy” (Wyeth, priority 2000, dated 2008).
# Where two headings read alike, the source gives them in different places.
# How the values were obtained:
# prostate cancer cells = test: Sensitivity of prostate cancer cells to CCI-779; assay type: cell-based; details: some prostate cancer cells, data not shown
# PSA [1] = details: LNCaP cells, 10 nM DHT, mRNA frequency
# FKBP54 [2] = details: LNCaP cells, 10 nM DHT, mRNA frequency
# Method: (§1) Human prostatic cancer cell lines LNCaP, DU-145, PC-3, and Tsu-prl were obtained from ATCC. LNCaP cancer cells were maintained in humidified atmosphere of 5% CO2 in air in RPMI 1640 medium supplemented with 10% fetal calf serum (Life Technologies, Inc, Rockville, Md.), 3 mM L-glutamine, 100 μg/ml streptomycin and 100 units/ml penicillin. Other lines were maintained in DMEM containing 3 mM L-glutamine, 100 μg/ml streptomycin, 100 units/ml penicillin, and 10% FCS in humidified atmosphere of 5% CO2. To examine the effects of steroids, cells were cultured in RPMI 1640 medium containing 5% FCS treated with dextran coated charcoal (Hyclone, Logan, Utah) for 24 hs before treatment. Cells were grown in the absence or presence of 10 nM DHT for 0, 2, 4, 6, 12, 24, 48, and 72 hs. They were collected and frozen at each time point. Two hundred μl of medium were collected from each flask for PSA assay.
# FKBP54 [3] = test: Western blot analysis of FKBP54 protein in LNCaP cells; assay type: cell-based, human
# Method: For Western blot analysis, LNCaP cells were plated in 6-well plate at 1×10^6 cells/well in charcoal stripped serum containing medium. Cells were treated with 10 nM DHT and harvested at designated time. Cells were harvested in MPER reagent (Pierce, Rockford, Ill.) containing 400 mM NaCl. […] The PVDF membrane was incubated in TBST (TBS with 0.1% Tween-20) with 3% milk for 15 minutes before the addition of the first antibody, rabbit anti-FKBP54 (Affinity Bioreagents, Inc). After overnight incubation, the PVDF membrane was washed 3 times with TBST and incubated with a second antibody, anti-rabbit-IgG coupled with horseradish peroxidase (Transduction Labs) for one hour. The PVDF membrane was then washed 3 times with TBST and protein was detected by using an enhanced chemiluminescence detection system (Pierce).
# LNCaP cells = details: MTT assay, FIG. 1A
# Method: as §1
# To verify the effect of DHT on the growth of LNCaP cells, cells at 3,000 cells/well were plated in 96-well plates for 24 hs before treatment with DHT. After 72 hs, MTT was added to each well and incubated at 37° C. for four hs. At the end of incubation, the supernatant was removed and 100 μl DMSO was added to each well to dissolve […]. Plates were subsequently read in a plate reader at […].
# PSA [4] = system: PSA
# androgen receptor (AR) = test: Transient transfection of COS-1 cells, GREe1bLuc luciferase reporter of AR transcriptional activity; assay type: cell-based; details: COS-1 cells transfected with FKBP54 expression vector
# Method: Bars represent the mean of at least three independent experiments±SD. To determine the effect of FKBP54 on the transcriptional activity of androgen receptor (AR), COS-1 cells were transiently transfected with a reporter construct containing androgen receptor response element along with an expression vector encoding FKBP54. […] The next morning, medium were replaced with 2-ml DMEM. Indicated amount of DNA in 100 μl of DMEM was mixed with 6 μl of PLUS reagent (Gibco) and incubated at room temperature while 4 μl of lipofectamine was mixed with 100 μl of DMEM. […] After incubation with DNA for 4 hours, 2 ml of phenol red-free DMEM containing 10% charcoal-stripped fetal bovine serum was added and cells treated with indicated chemicals for additional 24 hours before being harvested. Luciferase activity was determined using Promega's STEADY GLO™ Luciferase Assay System.
Molecule,"FKBP54 protein expression (Western blot, blot not shown) (FKBP54 [3])",increase in level of FKBP54 expression (FKBP54 [3]; 24 hours post exposure),increase in level of FKBP54 expression (FKBP54 [3]; 72 hours post exposure),Quantitative Expression Levels of FKBP54 (band density values) (FKBP54 [3]; time 0 hr),Quantitative Expression Levels of FKBP54 (band density values) (FKBP54 [3]; time 2 hr),Quantitative Expression Levels of FKBP54 (band density values) (FKBP54 [3]; time 6 hr),Quantitative Expression Levels of FKBP54 (band density values) (FKBP54 [3]; time 12 hr),Quantitative Expression Levels of FKBP54 (band density values) (FKBP54 [3]; time 24 hr),Quantitative Expression Levels of FKBP54 (band density values) (FKBP54 [3]; time 48 hr),Quantitative Expression Levels of FKBP54 (band density values) (FKBP54 [3]; time 72 hr),further results
CO[C@H]1C[C@@H]2CC[C@@H](C)[C@@](O)(O2)C(=O)C(=O)N2CCCC[C@H]2C(=O)O[C@H]([C@H](C)C[C@@H]2CC[C@@H](OC(=O)C(C)(CO)CO)[C@H](OC)C2)CC(=O)[C@H](C)/C=C(\C)[C@@H](O)[C@@H](OC)C(=O)[C@H](C)C[C@H](C)/C=C/C=C/C=C/1C [CCI-779],–,–,–,–,–,–,–,–,–,–,sensitivity of prostate cancer cells (prostate cancer cells): sensitive
"C[C@]12CCC(=O)C[C@@H]1CC[C@@H]1[C@@H]2CC[C@]2(C)[C@@H](O)CC[C@@H]12 [DHT, dihydrotestosterone]",upregulated the FKB54 expression in a time-dependent manner,approximately two-fold,approximately 4 fold,8.5,9.0,9.8,8.0,12.0,23.0,30.2,PSA expression increase relative to control (PSA [1]; 12 hours): 3 fold; PSA expression increase relative to control (PSA [1]; 72 hours): approximately 4 fold; FKBP54 expression induction relative to baseline (FKBP54 [2]; 6 hours): 2 fold; FKBP54 expression induction relative to baseline (peak) (FKBP54 [2]; 24 hours): approximately 4 fold; growth of LNCaP cells (LNCaP cells): stimulated by a natural androgen DHT in a dose-dependent manner; PSA production (PSA [4]): increased in a dose-dependent manner; time at which PSA signal was first detected (PSA [4]): 12 h; time of maximal PSA level (PSA [4]): about 48 hs
C[C@]1(O)CC[C@H]2[C@@H]3CCC4=CC(=O)CCC4=C3C=C[C@@]21C [R1881],could also upregulate the FKBP54 expression,~10 fold,approximately 30 fold,1.8,5.3,5.9,5.0,20.1,27.2,34.4,–
"FKBP54: member of the immunophilin family, FK binding protein; transfected as expression vector encoding FKBP54 (protein, UniProt Q13451 1-457, looked up) Peptidyl-prolyl cis-trans …: MTTDEGAKNNEESPTATVAEQGEDITSKKDRGVLKIVKRVGNGEETPMIGDKVYVHYKGKLSNGKKFDSSHDRNEPFVFSLGKGQVIKAWDIGVATMKKGEICHLLCKPEYAYGSAGSLPKIPSNATLFFEIELLDFKGEDLFEDGGIIRRTKRKGEGYSNPNEGATVEIHLEGRCGGRMFDCRDVAFTVGEGEDHDIPIGIDKALEKMQREEQCILYLGPRYGFGEAGKPKFGIEPNAELIYEVTLKSFEKAKESWEMDTKEKLEQAAIVKEKGTVYFKGGKYMQAVIQYGKIVSWLEMEYGLSEKESKASESFLLAAFLNLAMCYLKLREYTKAVECCDKALGLDSANEKGLYRRGEAQLLMNEFESAKGDFEKVLEVNPQNKAARLQISMCQKKAKEHNERDRRIYANMFKKFAEQDAKEEANKAMGKKTSEGVTNEKGTDSQAMEEEKPEGHV",–,–,–,–,–,–,–,–,–,–,increase of AR activity (androgen receptor (AR); in the presence of androgen (10^-9 M R1881)): more than 30%; effect on the reporter activity (androgen receptor (AR); without androgen): no effect
